According to patent US12565494B2, “Inhibitors of human respiratory syncytial virus and metapneumovirus” (priority 2022, dated 2026):
Where two headings read alike, the source gives them in different places.

Tests used:
RSV-A2-GFP virus = test: microbe, parasite or virus in culture; format: cell-based, Human Respiratory Syncytial Virus; details: Calu-1 cells, RSV-A2-GFP MOI=1.2, 96 hrs, GFP-expressing cells counted
Procedure: To set up the assay, ARF vials were thawed in a 37° C. water bath and a control compound was resuspended in assay media DMEM (Dulbecco's Modified Eagle Medium) containing 2% FBS, 100 U/ml Penicillin-Streptomycin.
GFP sequence was derived from pJTI™ R4 Dest CMV N-EmGFP pA Vector (Invitrogen) and was cloned into the intergenic sequence between wild-type RSV-A2 P and M genes using standard recombineering techniques. Recombinant RSV-A2-GFP was propagated in Hep2 cells (human cells contain HeLa marker chromosomes and were derived via HeLa contamination, ATCC CCL-23) with a Multiplicity of Infection (MOI) of 0.1. Virus was harvested 3 days after infection by collecting all culture material and then freeze-thawing the mixture for 5 minutes. Working virus stocks were generated by thawing frozen viral cultures in 37° C. water bath, which were centrifuged at 218 g for 15 min at 4° C. 1/10 of 10×SPG (Biological Industries 06-3061-01-5A) were added and then mixed. The supernatant was aliquoted, frozen in liquid nitrogen, and then transferred to a −80° C. freezer for storage. Virus titer was determined by automated plaque assay in HEp-2 cells following methods described previously (Wen Z. et al.; 2019).
Calu-1 cells were purchased from ATCC (Cat #HTB-54) and were expanded in growth media (DMEM containing 10% FBS, 100 U/ml Penicillin-Streptomycin). To make ARF, cell culture media was removed and discarded and the cell layer was briefly rinsed with PBS to remove serum. 2.5 mL of TrypLE Express solution were added and cells incubated until dislodged, to which growth media was added and the cells were resuspended by gentle pipetting. Cells were counted for concentration and viability as determined by ViCell. Cells were centrifuged at RT, 300 g for 5 minutes to pellet cells. The supernatant was gently aspirated and the pellet was flicked to loosen cells. Cells were resuspended in an appropriate volume of freezing medium (DMEM containing 10% DMSO, 10% FBS, 100 U/ml Penicillin-Streptomycin) to achieve a concentration of 5×10^6 cells/mL. 1 mL aliquots of the cell suspension were transferred to freezing vials. The vials were put into an upright container in a −80° C. freezer overnight before transferring vials to liquid nitrogen for storage
Assay ready freeze-down (ARF, generation described separately) Calu-1 cells (ATCC HTB-54) were used. Compound plates were prepared by dispensing compounds dissolved in DMSO into the wells of a 384 well Corning® 3985 plate with an ECHO acoustic dispenser and compounds were tested in 10-point serial 3-fold dilution. […] To set up the assay, ARF vial(s) were thawed in a 37° C. water bath and were then resuspended into assay media (DMEM containing 2% FBS, 100 U/ml Penicillin-Streptomycin). Cells were counted using default parameters on ViCell and diluted to 20,000 cells/mL in assay media. RSV-A2-GFP virus was added to cells at 24,000 pfu/ml (MOI=1.2) and mixed by gentle inversion. 10 μL/well of 100% DMSO was dispensed as CellTiter-Glo (CTG) assay Max_E controls wells. The cells were dispensed at 50 μL/well using Bravo with 50 μL filtered tips into compound plates. Plates were covered with MicroClime lids, loaded with 7.5 mL of assay media to minimize evaporation, and were incubated at 37° C. and 5% CO2 for 96 hrs. Following incubation, distinct, GFP-expressing cells were counted using an Acumen imaging system with appropriate settings. A same-well CTG assay was performed by adding 10 μL/well reconstituted CellTiter-Glo reagent (Promega G7573) and plates were read on PerkinElmer Envision according to manufacturer's instructions. Raw data were loaded and analyzed in ActivityBase. Antiviral IC50 and cytotoxicity CC50 values were determined using a 4 parameter logistic fit based on the Levenberg-Marquardt algorithm. Model: 205-4 Parameter Logistic.

hMPV-GFP virus = test: microbe, parasite or virus in culture; format: cell-based, Human Metapneumovirus; details: VERO cells, hMPV-GFP MOI=1.25, 48 hrs, GFP-expressing cells counted
Procedure: GFP expressing rgHMPV #3 p3 was generated in Dr. Buchholz's lab (Biacchesi S. et al., J Virol. 2007 June; 81(11): 6057-6067) and propagated in VERO cells (ATCC Cat #CCL-81) with a Multiplicity of Infection (MOI) of 0.1. Virus was harvested 4 days after infection by collecting cultured material and was freeze-thaw cycled in liquid nitrogen twice. Working virus stocks were generated from thawing frozen samples in 37° C. water bath, which were centrifuged at 218 g for 15 min at 4° C. 1/10 of 10×SPG (Biological Industries 06-3061-01-5A) were added and then mixed. The supernatant was aliquoted, frozen in liquid nitrogen, and then transferred to a −80° C. freezer for storage. Virus titer was determined by performing titration test in 96-well plates and calculate approximate virus titer using GFP event/well data.
Compound plates were prepared by dispensing compounds dissolved in DMSO into wells of a 384 well Corning 3985 polystyrene flat clear bottom optical imaging microplate (202.5 nL/well) using an ECHO acoustic dispenser. Each compound was tested in 10-point serial 3-fold dilution (typical final concentrations: 40,300 nM-2 nM). […] Continuous culture of VERO cells was maintained in complete culture media (OptiMEM supplemented with 2 mM GlutaMAX™ and 100 U/ml Penicillin-Streptomycin). To set up the assay, VERO cells were trypsinized with 0.25% Trypsin-EDTA until cells were dislodged, then cells were re-suspended with 1 mL FBS. Cells were spundown at 300 g for 5 minutes and cells were washed twice with culture media and counted using default parameters on ViCell. Cells were then diluted to 100,000 cells/mL (5,000 cells/50 μL) in complete culture media+TrypLE Select (80 μL/mL). hMPV-GFP virus was added to cells at 125,000 pfu/mL (MOI=1.25) and were mixed by gentle inversion. 10 μL/well of 100% DMSO was dispensed to CellTiter-Glo (CTG) assay Max_E controls wells. Cells were dispensed at 50 μL/well using Bravo and 50 μL filtered tips into compound plates. Plates were covered with MicroClime lids and loaded with 7.5 mL of assay media to minimize evaporation. Plates were lightly shaken for 10 minutes at room temperature and then incubated at 37° C. and 5% CO2 for 48 hrs. Following incubation, distinct GFP-expressing cells were counted using an Acumen imaging system with appropriate settings. A same-well CTG assay was performed by adding 10 μL/well reconstituted CellTiter-Glo reagent (Promega G7573) and plates were read on PerkinElmer Envision according to manufacturer's instructions. Raw data were loaded and analyzed in ActivityBase. Antiviral IC50 and cytotoxicity CC50 values were determined using a 4 parameter logistic fit based on the Levenberg-Marquardt algorithm. Model: 205-4 Parameter Logistic.

[1] = human respiratory syncytial virus, Calu-1, 96 h, read-out: RSV EC50, Table I Summary of Activities for RSV
[2] = read-out: RSV EC50, Table II Summary of Activities for hMPV
[3] = Vero, 48 h, read-out: RSV EC50, Table II Summary of Activities for hMPV
[4] = read-out: RSV EC50, Table I Summary of Activities for RSV

Compound	EC50 (RSV-A2-GFP virus; [1]) [nM]	EC50 (hMPV-GFP virus; [2]) [nM]	EC50 (hMPV-GFP virus; [3]) [nM]	also measured
CC(O)c1nc(-c2cscn2)sc1C(=O)N1C[C@@H]2[C@H](C1)[C@H]2Oc1cc(C(C)(C)N)cc(-c2ccc(F)cc2)n1 (single isomer, unassigned; enantiomer 1) [Example 16A]	< 10	10 to 100		
Cn1nc(-c2cscn2)cc1C(=O)N1C[C@H]2[C@H](Oc3cc(C(C)(C)N)cc(-c4ccc(F)cc4)n3)[C@@]2(C)C1 (single isomer, unassigned; enantiomer 1) [Example 43A]	< 10		10 to 100	
Cn1nc(-c2ncco2)cc1C(=O)N1C[C@H]2[C@H](Oc3cc(C(C)(C)N)cc(-c4ccc(F)cc4)n3)[C@@]2(C)C1 (single isomer, unassigned; enantiomer 1) [Example 44A]	< 10		10 to 100	
Cn1nc(-c2ccon2)cc1C(=O)N1C[C@H]2[C@H](Oc3cc(C(C)(C)N)cc(-c4ccc(F)cc4)n3)[C@@]2(C)C1 (single isomer, unassigned; enantiomer 1) [Example 45A]	< 10		> 100	
Cn1nc(-c2cscn2)cc1C(=O)N1C[C@H]2[C@H](Oc3cc(C(C)(C)N)cc(N4CCC(C)(C)CC4)n3)[C@@]2(C)C1 (single isomer, unassigned; enantiomer 1) [Example 46A]	< 10		> 100	
Cn1nc(-c2cscn2)cc1C(=O)N1C[C@@H]2[C@H](C1)[C@H]2Oc1cc(C2(C)CCN2)cc(-c2ccc(F)cc2)n1 (single isomer, unassigned; enantiomer 1) [Example 55A]	< 10	10 to 100		
Cn1nc(-c2cscn2)cc1C(=O)N1C[C@@H]2[C@H](C1)[C@H]2Oc1cc(C2(C)CCCN2)cc(-c2ccc(F)cc2)n1 (single isomer, unassigned; enantiomer 1) [Example 56A]	< 10		> 100	
Cn1nc(-c2cscn2)cc1C(=O)N1C[C@@H]2[C@H](C1)[C@H]2Oc1cc(C(C)(N)CO)cc(-c2ccc(F)cc2)n1 (single isomer, unassigned; enantiomer 1) [Example 57A]	< 10		> 100	
Cn1nc(-c2ncco2)cc1C(=O)N1C[C@@H]2C(Oc3cc(C(C)(N)CO)cc(-c4ccc(F)cc4)n3)[C@@H]2C1 (single isomer, unassigned; enantiomer 1) [Example 58A]				EC50 (RSV-A2-GFP virus; Table I Summary of Activities for RSV, read-out: RSV EC50): < 10 nM; EC50 (hMPV-GFP virus; Table II Summary of Activities for hMPV, read-out: RSV EC50): > 100 nM
CC(N)c1cc(O[C@H]2[C@@H]3CN(C(=O)c4cc(-c5cscn5)nn4C)C[C@@H]32)nc(-c2ccc(F)cc2)c1 (single isomer, unassigned; enantiomer 1) [Example 61A]	< 10		> 100	
CC(N)c1cc(O[C@H]2[C@@H]3CN(C(=O)c4cc(-c5ccon5)nn4C)C[C@@H]32)nc(-c2ccc(F)cc2)c1 (single isomer, unassigned; enantiomer 1) [Example 62A]	< 10		> 100	
Cn1nc(-c2cscn2)cc1C(=O)N1C[C@@H]2[C@H](C1)[C@H]2Oc1cc(C(C)(C)N)cc(C2CCC(C)(C)CC2O)n1 (single isomer, unassigned; enantiomer 1) [Example 66A]	< 10		> 100	
Cn1nc(-c2cscn2)cc1C(=O)N1C[C@@H]2[C@H]1C[C@H]2Oc1cc(C(C)(C)N)cc(-c2ccc(F)cc2)n1 (single isomer, unassigned; enantiomer 2) [Example 1]	< 10		> 100	
Cn1nc(-c2ncco2)cc1C(=O)N1C[C@@H]2[C@H]1C[C@H]2Oc1cc(C(C)(C)N)cc(-c2ccc(F)cc2)n1 (single isomer, unassigned; enantiomer 2) [Example 2]	10 to 100		> 100	
CC(O)c1nc(-c2cscn2)sc1C(=O)N1C[C@@H]2[C@H](C1)[C@H]2Oc1cc(C(C)(C)N)cc(-c2ccc(F)cc2)n1 (single isomer, unassigned; enantiomer 2) [Example 16B]		> 100		EC50 (RSV-A2-GFP virus; [4]): < 10 nM
Cn1nc(-c2cscn2)cc1C(=O)N1C[C@H]2[C@H](Oc3cc(C(C)(C)N)cc(-c4ccc(F)cc4)n3)[C@@]2(C)C1 (single isomer, unassigned; enantiomer 2) [Example 43B]	< 10		> 100	
Cn1nc(-c2ncco2)cc1C(=O)N1C[C@H]2[C@H](Oc3cc(C(C)(C)N)cc(-c4ccc(F)cc4)n3)[C@@]2(C)C1 (single isomer, unassigned; enantiomer 2) [Example 44B]		10 to 100		EC50 (RSV-A2-GFP virus; [4]): < 10 nM
Cn1nc(-c2ccon2)cc1C(=O)N1C[C@H]2[C@H](Oc3cc(C(C)(C)N)cc(-c4ccc(F)cc4)n3)[C@@]2(C)C1 (single isomer, unassigned; enantiomer 2) [Example 45B]		> 100		EC50 (RSV-A2-GFP virus; [4]): < 10 nM
Cn1nc(-c2cscn2)cc1C(=O)N1C[C@H]2[C@H](Oc3cc(C(C)(C)N)cc(N4CCC(C)(C)CC4)n3)[C@@]2(C)C1 (single isomer, unassigned; enantiomer 2) [Example 46B]		> 100		EC50 (RSV-A2-GFP virus; [4]): < 10 nM
